The text below walks through data of US20220389061A1, “IMMUNOMODULATORS” (priority 2019, published 2022).

What is called IC50 is the concentration at which inhibition is half-maximal.

The structures appear in SMILES notation. Like-named read-outs stand apart in the source and are kept apart here. Starred links: 1 amine or outer side, 2 acyl side, 3 side chain; linkers in the order of their positions; H or OH if unused. Positions of bridges follow the written chain, without caps; N, C: chain ends. Non-standard residues stand in square brackets, D forms with d. Residues, ends and D or L forms follow the SMILES beside them. Groups on a side chain read outwards from the residue. *: point of attachment. Trp(1-CH2COOH) = N[C@@H](Cc1cn(CC(=O)O)c2ccccc12)C(=O)O; Benzoyl(2-(4-MeOPh)) = COc1ccc(-c2ccccc2C(=O)*)cc1; NH(3,5-Cl2-phenyl) = Clc1cc(Cl)cc(N*)c1; X88 = Cc1cc([N+](=O)[O-])ccc1NC(=S)*; Hyp = O=C(O)[C@@H]1C[C@@H](O)CN1; X80 = S=C(Nc1ccc(-n2cccn2)cc1)*; X84 = COc1cc(NC(=S)*)cc(OC)c1OC; X29 = c1ccc(Oc2ccc(N*)cc2)cc1; NMeNle = CCCC[C@H](NC)C(=O)O; X2 = c1ccc(-c2ccccc2N*)cc1; X64 = COc1cc(OC)c(N*)cc1Cl; X74 = Cc1cc(C)c(N*)c(C)c1; 4Abz = Nc1ccc(C(=O)O)cc1; NMeA = CN[C@@H](C)C(=O)O; X58 = COc1cc(N*)cc(OC)c1; Dab = NCC[C@H](N)C(=O)O; Dap = NC[C@H](N)C(=O)O; X77 = Clc1cccc(N*)c1Cl; CO = O=C([*:1])[*:2]

This assay addresses T1, PD-1/PD-L1 (Homo sapiens, UniProt Q9NZQ7).
T1 construct: TVMV protease site linker (C); made in house; host or cells: HEK293T cells
Nature of the assay: PD-1/PD-L1 Homogenous Time-Resolved Fluorescence (HTRF) binding assay. The method in brief: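 HTRF read-out using europium cryptate anti-Ig (1 nM) and APC anti-His (20 nM) on extracellular-domain fusion proteins in dPBS/0.1% BSA/0.05% Tween-20. Inhibitor first incubated 15 min with 10 nM PD-L1-His, followed by 20 nM PD-1-Ig for another 15 min.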
Background: In TR-FRET formats the signal depends on donor and acceptor labels being close together.

Setting [1] is: PD-L1-His 10 nM pre-incubated with inhibitor, PD-1-Ig 20 nM, read-out: HTRF IC50.

T1 sequence (Q9NZQ7 18-239): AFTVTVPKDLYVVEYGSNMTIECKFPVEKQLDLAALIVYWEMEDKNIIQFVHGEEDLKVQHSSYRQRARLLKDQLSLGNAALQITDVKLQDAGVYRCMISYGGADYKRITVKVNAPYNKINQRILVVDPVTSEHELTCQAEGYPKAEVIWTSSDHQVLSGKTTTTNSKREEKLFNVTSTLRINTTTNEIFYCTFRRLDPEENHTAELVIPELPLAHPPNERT

As to `CCCC[C@H]1C(=O)N(C)[C@@H](CCCC)C(=O)N[C@@H](CC(C)C)C(=O)N[C@H](C(=O)NCC(N)=O)CSCC(=O)N[C@@H](Cc2ccc(O)cc2)C(=O)N(C)[C@@H](C)C(=O)N[C@@H](CC(N)=O)C(=O)N2CCC[C@H]2C(=O)N[C@@H](CNC(=S)Nc2ccc(-n3cccn3)cc2)C(=O)N[C@@H](CC(C)C)C(=O)N2C[C@H](O)C[C@H]2C(=O)N[C@@H](Cc2c[nH]c3ccccc23)C(=O)N[C@@H](CCN)C(=O)N[C@@H](Cc2cn(CC(=O)O)c3ccccc23)C(=O)N1C` [Example 1060] ({CH2CO}-Y[NMeA]NP[Dap](X80)L[Hyp]W[Dab][Trp(1-CH2COOH)][NMeNle][NMeNle]LCG-NH2; thioether N-14), the IC50 under setting [1] came out at 1.1 nM.

Regarding `CCCC[C@H]1C(=O)N(C)[C@@H](CCCC)C(=O)N[C@@H](CC(C)C)C(=O)N[C@H](C(=O)NCC(N)=O)CSCC(=O)N[C@@H](Cc2ccc(O)cc2)C(=O)N(C)[C@@H](C)C(=O)N[C@@H](CC(N)=O)C(=O)N2CCC[C@H]2C(=O)N[C@@H](CNC(=O)c2ccccc2-c2ccc(OC)cc2)C(=O)N[C@@H](CC(C)C)C(=O)N2C[C@H](O)C[C@H]2C(=O)N[C@@H](Cc2c[nH]c3ccccc23)C(=O)N[C@@H](CCN)C(=O)N[C@@H](Cc2cn(CC(=O)O)c3ccccc23)C(=O)N1C` [Example 1061] ({CH2CO}-Y[NMeA]NP[Dap](Benzoyl(2-(4-MeOPh)))L[Hyp]W[Dab][Trp(1-CH2COOH)][NMeNle][NMeNle]LCG-NH2; thioether N-14), the IC50 under setting [1] amounted to 4 nM.

Regarding `CCCC[C@H]1C(=O)N(C)[C@@H](CCCC)C(=O)N[C@@H](CC(C)C)C(=O)N[C@H](C(=O)NCC(N)=O)CSCC(=O)N[C@@H](Cc2ccc(O)cc2)C(=O)N(C)[C@@H](C)C(=O)N[C@@H](CC(N)=O)C(=O)N2CCC[C@H]2C(=O)N[C@@H](CNC(=O)Nc2ccccc2-c2ccccc2)C(=O)N[C@@H](CC(C)C)C(=O)N2C[C@H](O)C[C@H]2C(=O)N[C@@H](Cc2c[nH]c3ccccc23)C(=O)N[C@@H](CCN)C(=O)N[C@@H](Cc2cn(CC(=O)O)c3ccccc23)C(=O)N1C` [Example 1062] ({CH2CO}-Y[NMeA]NP[Dap]([CO-X2])L[Hyp]W[Dab][Trp(1-CH2COOH)][NMeNle][NMeNle]LCG-NH2; thioether N-14), the half-inhibitory concentration (IC50) is 3.4 nM.

`CCCC[C@H]1C(=O)N(C)[C@@H](CCCC)C(=O)N[C@@H](CC(C)C)C(=O)N[C@H](C(=O)NCC(N)=O)CSCC(=O)N[C@@H](Cc2ccc(O)cc2)C(=O)N(C)[C@@H](C)C(=O)N[C@@H](CC(N)=O)C(=O)N2CCC[C@H]2C(=O)N[C@@H](CNC(=O)c2ccccc2-c2ccc(OC)cc2)C(=O)N[C@@H](CC(C)C)C(=O)N2C[C@H](O)C[C@H]2C(=O)N[C@@H](Cc2c[nH]c3ccccc23)C(=O)N[C@@H](CCN)C(=O)N[C@@H](Cc2cn(CC(=O)O)c3ccccc23)C(=O)N1C` [Example 1063] ({CH2CO}-Y[NMeA]NP[Dap](Benzoyl(2-(4-MeOPh)))L[Hyp]W[Dab][Trp(1-CH2COOH)][NMeNle][NMeNle]LCG-NH2; thioether N-14): the 50% inhibitory concentration (IC50) under setting [1] is 3.7 nM.

As to `CCCC[C@H]1C(=O)N(C)[C@@H](CCCC)C(=O)N[C@@H](CC(C)C)C(=O)N[C@H](C(=O)NCC(N)=O)CSCC(=O)N[C@@H](Cc2ccc(O)cc2)C(=O)N(C)[C@@H](C)C(=O)N[C@@H](CC(N)=O)C(=O)N2CCC[C@H]2C(=O)N[C@@H](CNC(=O)Nc2cc(OC)cc(OC)c2)C(=O)N[C@@H](CC(C)C)C(=O)N2C[C@H](O)C[C@H]2C(=O)N[C@@H](Cc2c[nH]c3ccccc23)C(=O)N[C@@H](CCN)C(=O)N[C@@H](Cc2cn(CC(=O)O)c3ccccc23)C(=O)N1C` [Example 1064] ({CH2CO}-Y[NMeA]NP[Dap]([CO-X58])L[Hyp]W[Dab][Trp(1-CH2COOH)][NMeNle][NMeNle]LCG-NH2; thioether N-14), the 50% inhibitory concentration (IC50) under setting [1] came to 3 nM.

In the case of `CCCC[C@H]1C(=O)N(C)[C@@H](CCCC)C(=O)N[C@@H](CC(C)C)C(=O)N[C@H](C(=O)NCC(N)=O)CSCC(=O)N[C@@H](Cc2ccc(O)cc2)C(=O)N(C)[C@@H](C)C(=O)N[C@@H](CC(N)=O)C(=O)N2CCC[C@H]2C(=O)N[C@@H](CNC(=S)Nc2cc(OC)c(OC)c(OC)c2)C(=O)N[C@@H](CC(C)C)C(=O)N2C[C@H](O)C[C@H]2C(=O)N[C@@H](Cc2c[nH]c3ccccc23)C(=O)N[C@@H](CCN)C(=O)N[C@@H](Cc2cn(CC(=O)O)c3ccccc23)C(=O)N1C` [Example 1065] ({CH2CO}-Y[NMeA]NP[Dap](X84)L[Hyp]W[Dab][Trp(1-CH2COOH)][NMeNle][NMeNle]LCG-NH2; thioether N-14), the half-maximal inhibitory concentration (IC50) under setting [1] came to 2.8 nM.

With `CCCC[C@H]1C(=O)N(C)[C@@H](CCCC)C(=O)N[C@@H](CC(C)C)C(=O)N[C@H](C(=O)NCC(N)=O)CSCC(=O)N[C@@H](Cc2ccc(O)cc2)C(=O)N(C)[C@@H](C)C(=O)N[C@@H](CC(N)=O)C(=O)N2CCC[C@H]2C(=O)N[C@@H](CNC(=O)Nc2c(C)cc(C)cc2C)C(=O)N[C@@H](CC(C)C)C(=O)N2C[C@H](O)C[C@H]2C(=O)N[C@@H](Cc2c[nH]c3ccccc23)C(=O)N[C@@H](CCN)C(=O)N[C@@H](Cc2cn(CC(=O)O)c3ccccc23)C(=O)N1C` [Example 1066] ({CH2CO}-Y[NMeA]NP[Dap]([CO-X74])L[Hyp]W[Dab][Trp(1-CH2COOH)][NMeNle][NMeNle]LCG-NH2; thioether N-14), the concentration for half-maximal inhibition (IC50) under setting [1] came to 2.9 nM.

Take `CCCC[C@H]1C(=O)N(C)[C@@H](CCCC)C(=O)N[C@@H](CC(C)C)C(=O)N[C@H](C(=O)NCC(N)=O)CSCC(=O)N[C@@H](Cc2ccc(O)cc2)C(=O)N(C)[C@@H](C)C(=O)N[C@@H](CC(N)=O)C(=O)N2CCC[C@H]2C(=O)N[C@@H](CNC(=O)Nc2cc(Cl)c(OC)cc2OC)C(=O)N[C@@H](CC(C)C)C(=O)N2C[C@H](O)C[C@H]2C(=O)N[C@@H](Cc2c[nH]c3ccccc23)C(=O)N[C@@H](CCN)C(=O)N[C@@H](Cc2cn(CC(=O)O)c3ccccc23)C(=O)N1C` [Example 1067] ({CH2CO}-Y[NMeA]NP[Dap]([CO-X64])L[Hyp]W[Dab][Trp(1-CH2COOH)][NMeNle][NMeNle]LCG-NH2; thioether N-14): the half-maximal inhibitory concentration (IC50) under setting [1] was determined as 2.7 nM.

With `CCCC[C@H]1C(=O)N(C)[C@@H](CCCC)C(=O)N[C@@H](CC(C)C)C(=O)N[C@H](C(=O)NCC(N)=O)CSCC(=O)N[C@@H](Cc2ccc(O)cc2)C(=O)N(C)[C@@H](C)C(=O)N[C@@H](CC(N)=O)C(=O)N2CCC[C@H]2C(=O)N[C@@H](CNC(=O)Nc2cc(Cl)cc(Cl)c2)C(=O)N[C@@H](CC(C)C)C(=O)N2C[C@H](O)C[C@H]2C(=O)N[C@@H](Cc2c[nH]c3ccccc23)C(=O)N[C@@H](CCN)C(=O)N[C@@H](Cc2cn(CC(=O)O)c3ccccc23)C(=O)N1C` [Example 1068] ({CH2CO}-Y[NMeA]NP[Dap]([CO-NH(3,5-Cl2-phenyl)])L[Hyp]W[Dab][Trp(1-CH2COOH)][NMeNle][NMeNle]LCG-NH2; thioether N-14), the IC50 was found to be 4.3 nM.

Take `CCCC[C@H]1C(=O)N(C)[C@@H](CCCC)C(=O)N[C@@H](CC(C)C)C(=O)N[C@H](C(=O)NCC(N)=O)CSCC(=O)N[C@@H](Cc2ccc(O)cc2)C(=O)N(C)[C@@H](C)C(=O)N[C@@H](CC(N)=O)C(=O)N2CCC[C@H]2C(=O)N[C@@H](CNC(=O)Nc2ccc(C(=O)OCC)cc2)C(=O)N[C@@H](CC(C)C)C(=O)N2C[C@H](O)C[C@H]2C(=O)N[C@@H](Cc2c[nH]c3ccccc23)C(=O)N[C@@H](CCN)C(=O)N[C@@H](Cc2cn(CC(=O)O)c3ccccc23)C(=O)N1C` [Example 1069] ({CH2CO}-Y[NMeA]NP[Dap]([CO-4Abz-OEt])L[Hyp]W[Dab][Trp(1-CH2COOH)][NMeNle][NMeNle]LCG-NH2; thioether N-14): the 50% inhibitory concentration (IC50) under setting [1] was determined as 0.4 nM.

As for `CCCC[C@H]1C(=O)N(C)[C@@H](CCCC)C(=O)N[C@@H](CC(C)C)C(=O)N[C@H](C(=O)NCC(N)=O)CSCC(=O)N[C@@H](Cc2ccc(O)cc2)C(=O)N(C)[C@@H](C)C(=O)N[C@@H](CC(N)=O)C(=O)N2CCC[C@H]2C(=O)N[C@@H](CNC(=O)Nc2ccc(Oc3ccccc3)cc2)C(=O)N[C@@H](CC(C)C)C(=O)N2C[C@H](O)C[C@H]2C(=O)N[C@@H](Cc2c[nH]c3ccccc23)C(=O)N[C@@H](CCN)C(=O)N[C@@H](Cc2cn(CC(=O)O)c3ccccc23)C(=O)N1C` [Example 1070] ({CH2CO}-Y[NMeA]NP[Dap]([CO-X29])L[Hyp]W[Dab][Trp(1-CH2COOH)][NMeNle][NMeNle]LCG-NH2; thioether N-14), under setting [1], the IC50 was determined as 5.5 nM.

Consider `CCCC[C@H]1C(=O)N(C)[C@@H](CCCC)C(=O)N[C@@H](CC(C)C)C(=O)N[C@H](C(=O)NCC(N)=O)CSCC(=O)N[C@@H](Cc2ccc(O)cc2)C(=O)N(C)[C@@H](C)C(=O)N[C@@H](CC(N)=O)C(=O)N2CCC[C@H]2C(=O)N[C@@H](CNC(=O)Nc2cccc(Cl)c2Cl)C(=O)N[C@@H](CC(C)C)C(=O)N2C[C@H](O)C[C@H]2C(=O)N[C@@H](Cc2c[nH]c3ccccc23)C(=O)N[C@@H](CCN)C(=O)N[C@@H](Cc2cn(CC(=O)O)c3ccccc23)C(=O)N1C` [Example 1071] ({CH2CO}-Y[NMeA]NP[Dap]([CO-X77])L[Hyp]W[Dab][Trp(1-CH2COOH)][NMeNle][NMeNle]LCG-NH2; thioether N-14), for which the IC50 is 2.3 nM.

With `CCCC[C@H]1C(=O)N(C)[C@@H](CCCC)C(=O)N[C@@H](CC(C)C)C(=O)N[C@H](C(=O)NCC(N)=O)CSCC(=O)N[C@@H](Cc2ccc(O)cc2)C(=O)N(C)[C@@H](C)C(=O)N[C@@H](CC(N)=O)C(=O)N2CCC[C@H]2C(=O)N[C@@H](CNC(=S)Nc2ccc([N+](=O)[O-])cc2C)C(=O)N[C@@H](CC(C)C)C(=O)N2C[C@H](O)C[C@H]2C(=O)N[C@@H](Cc2c[nH]c3ccccc23)C(=O)N[C@@H](CCN)C(=O)N[C@@H](Cc2cn(CC(=O)O)c3ccccc23)C(=O)N1C` [Example 1072] ({CH2CO}-Y[NMeA]NP[Dap](X88)L[Hyp]W[Dab][Trp(1-CH2COOH)][NMeNle][NMeNle]LCG-NH2; thioether N-14), the half-inhibitory concentration (IC50) under setting [1] was determined as 4.9 nM.
